From article PMC10470313, “Developing a peptide to disrupt cohesin head domain interactions” (iScience, 2023)
Several values for one entry are separate records, joined by “and”; a condition that tells them apart may be missing. Identical values can stand only once. Entries after “also recorded” stand apart in the source; their conditions may differ.

T1: CIP3-TAT (S. cerevisiae | HIV)
T1 construct: Smc1, S. cerevisiae, residues 1121-1135 (conserved region of the head domain); linker between the Smc1 stretch and the TAT stretch; 11-amino acid peptide from the HIV TAT protein, added for delivery into cells; The methods of the biosensing experiment call the immobilised peptide CIP3; also called TAT-CIP3; source: synthetic peptide (Fmoc solid-phase synthesis, purified by preparative RP-HPLC)
T1 peptide: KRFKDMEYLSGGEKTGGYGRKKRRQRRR

B1: Smc3 head domain (domain or fragment, S. cerevisiae)
chain: YIKRVIIKGFKTYRNETIIDNFSPHQNVIIGSNGSGKSNFFAAIRFVLSDDYSNLKREERQGLIHQGSGGSVMSASVEIVFHDPDHSMILPSGVLSRGDDEVTIRRTVGLKKDDYQLNDRNVTKGDIVRMLETAGFSMNNPYNIVPQGKIVALTNAKDKERLQLLEDVVGAKSFEVKLKASLKKMEETEQKKIQINKEMGELNESSKHPTSLVPRGNFKKFNERRKDLAERASELDESKDSIQDLIVKLKQQKVNAVDSTFQKVSENFEAVFERLVPRGTAKLIIHRKNDNANDHDESIDVDMDAESNESQNGKDSEIMYTGVSISVSFNSKQNEQLHVEQLSGGQKTVCAIALILAIQMVDPASFYLFDEIDAALDKQYRTAVATLLKELSKNAQFICTTFRTDMLQVADKFFRVKYENKISTVIEVNREEAIGFIRGSNKFAEV
notes: Smc3, S. cerevisiae, N-terminal part of the head domain, amino acids 2-204; 13 amino acids linker in place of the coiled coil and hinge; Smc3, S. cerevisiae, C-terminal part of the head domain, amino acids 1001-1230; also called Smc3hd; source: E. coli BL21, purified (Ni-NTA, twice)

Columns and labels:
[1] = system: yeast cells (pGAL-CIP strains); experiment: Yeast growth rate with galactose-induced peptide expression (OD600); format: cell-based, Saccharomyces cerevisiae; conditions: OD 600 nm every 120 min; for growth of cells overexpressing the peptide: SC-URA galactose medium, compared with control plasmid; for growth rate vs control, multiple linear regression coefficient B: logarithmic phase, galactose medium, representative experiment, vs control strain yIO1000
Text: We designed three cohesin-inhibiting peptides (CIPs, Table 1) to inhibit Smc1/Smc3 protein-protein interaction. CIP1 and CIP2 were derived from conserved regions in Smc3, while CIP3 was derived from a conserved region in Smc1 (Figure 1E). To explore the biological effect of the peptides on cohesin, we sought to overexpress them in cells. For that purpose, we constructed a centromeric plasmid—pME4 (CIP1), pME2 (CIP2), and pME3 (CIP3), in which the peptide coding sequence was inserted after an ATG codon and under the control of a GAL promoter. Cells were transformed with the plasmids and grown in an SC-URA medium. In addition, we transformed cells with a control plasmid (pIO014).
(§1) Strains yIO1000 (control) and yME-031 (pGAL-CIP1), yME-016 (pGAL-CIP2), and yME-019 (pGAL-CIP3) cells were diluted in SC-URA galactose medium, and their growth rate was measured by optical density at 600 nm every 120 min. Cohesin is essential for cell division, so we expected that inhibition of cohesin activity by expressing a CIP would affect the cell growth rate.
Figure 2 CIP3 causes cell growth delay Strains yIO1000 (control) and yME-031 (pGAL-CIP1), yME-016 (pGAL-CIP2), and yME-019 (pGAL-CIP3) cells were grown in a galactose-containing medium to induce peptide expression. Cell growth was monitored every 120 min to measure the optical density of the culture at 600 nm. The growth rate in the logarithmic growth phase was calculated. The results of a representative experiment are shown.

cohesin in yeast cells = experiment: Preliminary analysis of biological effect; format: cell-based
Method: as §1
The CIP3 sequence is derived from the C-terminal region of Smc1. The 15 amino acid sequence is conserved, encoding part of a short loop and the beginning of an alpha helix located at the bottom of the head domain (Figures 1A–1C). […] We used the HPepDock 2.0 server[32]^,[33]^,[34]^,[35] to predict the docking site of CIP3 on Smc3. The coordinates of the Smc3 structure (PDB: 4ux3)[36] were entered as the receptor input and CIP3 as the sequence as the peptide input and the analysis was done using the default parameter. […] CIP3 may interfere with ATP binding to the Walker A site in Smc3. Alternatively, it may misplace the hydrolysis motif in Smc1 and inhibit that ATPase activity. It is important to note that dynamics models are required to understand the structural basis of the Smc3-CIP3 complex fully, as well as experimental validation of the model.

[2] = system: yIO-001 strain yeast cells; experiment: Peptide entry into yeast cells (epifluorescence microscopy); format: cell-based; conditions: 10 mM peptide, 1 h, 30°C, mid-log phase, FITC epifluorescence
Method: The formation of Smc3/CIP3 complexes supports our preliminary conclusion that CIP3 inhibits cohesin activity in cells. Aiming to improve the stability of the peptide in cells, we switched to using an in vitro synthesized peptide. This approach has been successfully used to inhibit protein-protein interactions in both yeast and mammalian cells.[26]^,[38]^,[39]^,[40]^,[41] […] We validated peptide entry into yeast by incubating a 26-amino acid control peptide (ContP), which was fused to the TAT, and a fluorescein isothiocyanate (FITC) fluorophore. Thereafter, 10 mM of the ContP was added to yIO-001 strain cells grown to mid-log phase at 30°C. The cells were incubated with the peptide for 1 h and analyzed by epifluorescence microscopy.
Supplementary Figure S3. Binding of CIP3-TAT to cohesin by microscale thermophoresis, Related to Figure 3. 10 µM CIP3-TAT was added to protein extracts from strain yAM-945 (Smc3-GFP). The formation of the CIP3-TAT and cohesin complex was analyzed by MST in binding mode. A. MST trace. B. Binding analysis.
Supplementary Figure S4. […]
3. […] The purified proteins were analyzed on gel, followed by coomassie staining. […]
Supplementary Figure S5. […] The entry of the peptide into the cells was analyzed by epifluorescence microscopy.
Supplementary Figure S6. […] The cell cycle stage of the cells, described in Fig. 4B, was determined by flow cytometry. […]

cohesin holocomplex = experiment: ATPase assay of cohesin holocomplex (free Pi); format: biochemical, S. cerevisiae; conditions: 10 nM cohesin, 20 nM loader, dsDNA, 0.25 mM ATP, 20 mM TAT-CIP3 as printed, 30°C, absorbance 650 nm
Method: The formation of the Smc3-CIP3 complex likely affects the ATPase activity. To explore this possibility, we expressed and purified S. cerevisiae cohesin holocomplex and the loader from yeast cells[37] (Figure S4. Purification of cohesin holocomplex and loader, related to Figure 3), and we measured the ATPase rate of cohesin in the presence of cohesin, the loader DNA, and ATP, as previously described.[37] Cohesin was preincubated without or with CIP3, and the accumulation of free Pi was measured over 30 min. In the absence of CIP3, Pi accumulation was constant over time, indicating continuous ATP hydrolysis.
Cohesin and the Scc2-Scc4 loader were expressed in S. cerevisiae as described in[37] with the following modifications: Cells were resuspended in buffer A (50 mM Hepes-NaOH pH 7.5, 300 mM NaCl, 2 mM MgCl2, 20% (vol/vol) glycerol, 0.5 mM Tris(2-carboxyethyl)phosphine hydrochloride (TCEP), 0.5 mM Pefabloc (Sigma-Aldrich), and a protease inhibitor cocktail (Sigma-Aldrich) and lysed by seven continuous passes in EmulsiFlexby-C3 (Avastin) at 4°C. The lysate was clarified, and purifications were continuous, as described in.[37]
ATPase assay has been done with the piColorLock kit (Expedeon) according to the manufacturer manual. […] The reaction was incubated at 30°C for 20 minutes and the amount of free was measured for 30 min minutes by absorbance in 650 nm every 5 min […].

yeast cells = experiment: Yeast growth with CIP3 expressed from T2A ribosome-skipping vector; format: cell-based, Saccharomyces cerevisiae; conditions: CIP3 followed by GFP in T2A vector, GAL promoter
Text: The weak effect of CIP3 expressed in cells may relate to several reasons, including low expression levels, low translation efficiency, or cellular instability of short mRNAs and peptides. We tried to increase cellular mRNA stability by using a plasmid containing the T2A ribosome-skipping sequence under GAL promoter control.[29]^,[30]^,[31] Two genes cloned in tandem and separated by a T2A linker were expressed as a single mRNA. The ribosome skips the T2A sequence during translation, resulting in two separate proteins (Figure S1A. Peptide expression from a plasmid containing T2A ribosome-skipping sequence, related to Figure 2). To test the system, we cloned green fluorescent protein (GFP) and mCherry in tandem, separated by the T2A sequence. Cells carrying the plasmids were grown in SC-URA with either noninducing raffinose or inducing galactose. […] Both GFP and mCherry proteins were detected by western blot analysis of extracts from these cells (Figure S1C. Peptide expression from a plasmid containing T2A ribosome-skipping sequence, related to Figure 2). […]

CIP3-TAT [3] = target: T1, CIP3-TAT; experiment: field-effect biosensing (FEB Agile R100); 500 nM peptide immobilised on a graphene sensor chip; purified Smc3 head domain as analyte in rising concentrations; PBS baseline; without ATP; Kd by Hill fit or from kon and koff at a single concentration; conditions: both partners purified
CIP3-TAT [4] = target: T1, CIP3-TAT; experiment: field-effect biosensing (FEB Agile R100); 500 nM peptide immobilised on a graphene sensor chip; purified Smc3 head domain as analyte, incubated with ATP (10 mM) before the measurement; conditions: both partners purified

| Molecule | growth of cells overexpressing the peptide [1] | growth rate vs control, multiple linear regression coefficient B [1] | biological effect, preliminary analysis (cohesin in yeast cells) | other results |
| --- | --- | --- | --- | --- |
| MKQNEQLHVEQLSGGQKTV [CIP1, expressed from pME4] | no significant decrease in growth rate | 0.015 | do not have a detectable biological effect |  |
| FITC-SGYGRKKRRQRRR-GGGLNPYWMETFT [ContP, 26-amino acid control peptide fused to the TAT and a fluorescein isothiocyanate (FITC) fluorophore] |  |  |  | peptide entry into yeast cells [2]: emission from cells incubated with the ContP peptide |
| MKRFKDMEYLSGGEKT [CIP3, expressed from pME3] | weak growth delay; also recorded: significant decrease in growth rate | −0.727 |  | Pi accumulation (ATPase activity) after 5 min (cohesin holocomplex): Pi accumulation dropped sharply, indicating that ATPase activity was inhibited; growth inhibition compared to previous (non-T2A) experiment (yeast cells): the inhibition fold was not improved |
| MIIGSNGSGKSN [CIP2, expressed from pME2] | no significant decrease in growth rate | −0.290 | do not have a detectable biological effect |  |
| B1 |  |  |  | Kd (CIP3-TAT [3]): 53.9 nM and 56 nM; Kd (CIP3-TAT [4]): 544.2 ± 0.06 nM |
